Experimental data: patent publication US20110105397A1, “METHOD FOR TREATING HEART FAILURE WITH STRESSCOPIN-LIKE PEPTIDES” (priority 2009, published 2011)
Where two headings read alike, the source gives them in different places. Where a SMILES comes first, the peptide text is derived from it. Where no end group is shown, it is not given here. The star is where a group is joined. Succinimide(1-Et,3-yl) = CCN1C(=O)CC(*)C1=O

Target: T1, human CRHR2 (Homo sapiens, UniProt Q13324)
T1 construct: expressed in transfected cells
T1 sequence (Q13324 1-411): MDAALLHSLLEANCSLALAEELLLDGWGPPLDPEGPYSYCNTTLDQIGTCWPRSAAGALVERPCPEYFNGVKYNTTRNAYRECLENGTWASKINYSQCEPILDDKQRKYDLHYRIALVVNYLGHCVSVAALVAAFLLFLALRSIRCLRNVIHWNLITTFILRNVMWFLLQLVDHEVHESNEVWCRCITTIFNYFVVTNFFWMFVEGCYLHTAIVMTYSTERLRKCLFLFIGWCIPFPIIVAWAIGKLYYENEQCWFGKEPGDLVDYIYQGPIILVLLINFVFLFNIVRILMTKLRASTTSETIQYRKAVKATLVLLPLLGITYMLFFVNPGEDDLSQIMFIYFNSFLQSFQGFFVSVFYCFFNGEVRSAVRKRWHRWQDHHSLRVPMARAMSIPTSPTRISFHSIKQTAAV
Experiment: cAMP assay, h-CRHR2 transfected SK-N-MC cells
Format: cell-based
Settings: for EC50: read-out: pA50 (converted); for Log DR [M]: h-SCP control pA50 minus test compound pA50 within the same assay batch
Procedure, shortened: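 Intracellular cAMP was quantified by radioligand competition against a cAMP standard curve after HCl lysis of h-CRHR2-transfected SK-N-MC cells. These cells had been exposed to peptides from 1 pM to 1 μM for 1 h at 37 °C with IBMX. Responses were scaled to the daily h-SCP maximum and fitted to the Hill equation to give A50/pA50.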

[1] = Table 13, cysteine mutation, N-ethylmaleimide capping, pegylation

Compound	EC50 [1] [nM]	Log DR [M] (Table 13)	fold less potent than the amidated parent peptide	nH (Table 12)	EC50 (Table 12, amidation and N-terminal deletions, normalized to maximum response to h-SCP, 3-5 replicate experiments) [nM]	αmax (Table 12, normalized to the maximum response to h-SCP)
CC[C@H](C)[C@H](NC(=O)[C@H](CCC(N)=O)NC(=O)[C@H](C)NC(=O)[C@H](CCSC)NC(=O)[C@H](CC(C)C)NC(=O)[C@H](Cc1c[nH]cn1)NC(=O)[C@H](C)NC(=O)[C@H](CC(N)=O)NC(=O)[C@H](C)NC(=O)[C@H](C)NC(=O)[C@H](C)NC(=O)[C@H](CCC(N)=O)NC(=O)[C@H](C)NC(=O)[C@H](CCCNC(=N)N)NC(=O)[C@H](CSC1CC(=O)N(CC)C1=O)NC(=O)[C@H](CC(N)=O)NC(=O)[C@H](CCCCN)NC(=O)[C@H](C)NC(=O)[C@H](CCCCN)NC(=O)[C@H](C)NC(=O)[C@@H](NC(=O)[C@H](CC(N)=O)NC(=O)[C@H](Cc1ccccc1)NC(=O)[C@H](CC(C)C)NC(=O)[C@H](CC(C)C)NC(=O)[C@H](CC(N)=O)NC(=O)[C@H](CCSC)NC(=O)[C@@H](NC(=O)[C@H](CC(N)=O)NC(=O)[C@@H](NC(=O)[C@@H]1CCCN1C(=O)[C@@H](NC(=O)[C@H](CC(=O)O)NC(=O)[C@H](CC(C)C)NC(=O)[C@H](CO)NC(=O)[C@H](CC(C)C)NC(=O)[C@@H](NC(=O)[C@H](Cc1ccccc1)NC(=O)[C@H](CCCCN)NC(=O)[C@@H](N)[C@@H](C)O)[C@@H](C)O)C(C)C)[C@@H](C)O)[C@@H](C)CC)[C@@H](C)CC)C(N)=O (stereo partly drawn) [SEQ ID NO: 48, TKFTLSLDVPTNIMNLLFNIAKAKNC(-NES)RAQA AANAH LMAQI-NH2] (H-TKFTLSLDVPTNIMNLLFNIAKAKNC(Succinimide(1-Et,3-yl))RAQAAANAHLMAQI-NH2; N-terminus assumed)	0.363	0.03	–	–	–	–
TCFTLSLDVPTNIMNLLFNIAKAKNLRAQAAANAHLMAQI-NH2 [SEQ ID NO: 3, TCFTLSLDVPTNIMNLLFNIAKAKNLRAQAAANAHLMAQI-NH2]	1.07	0.72	–	–	–	–
TKFTLSLDVPTNIMNLLFNIAKAKNLRAQAAANACLMAQI-NH2 [SEQ ID NO: 36, TKFTLSLDVPTNIMNLLFNIAKAKNLRAQAAANACLMAQI-NH2]	0.794	0.42	–	–	–	–
CC[C@H](C)[C@H](NC(=O)[C@H](CC(N)=O)NC(=O)[C@H](Cc1ccccc1)NC(=O)[C@H](CC(C)C)NC(=O)[C@H](CC(C)C)NC(=O)[C@H](CC(N)=O)NC(=O)[C@H](CCSC)NC(=O)[C@@H](NC(=O)[C@H](CC(N)=O)NC(=O)[C@@H](NC(=O)[C@@H]1CCCN1C(=O)[C@@H](NC(=O)[C@H](CC(=O)O)NC(=O)[C@H](CC(C)C)NC(=O)[C@H](CO)NC(=O)[C@H](CC(C)C)NC(=O)[C@@H](NC(=O)[C@H](Cc1ccccc1)NC(=O)[C@H](CCCCN)NC(=O)[C@@H](N)[C@@H](C)O)[C@@H](C)O)C(C)C)[C@@H](C)O)[C@@H](C)CC)C(=O)N[C@@H](C)C(=O)N[C@@H](CCCCN)C(=O)N[C@@H](C)C(=O)N[C@@H](CCCCN)C(=O)N[C@@H](CC(N)=O)C(=O)N[C@@H](CC(C)C)C(=O)N[C@@H](CCCNC(=N)N)C(=O)N[C@@H](C)C(=O)N[C@@H](CCC(N)=O)C(=O)N[C@@H](C)C(=O)N[C@@H](C)C(=O)N[C@@H](C)C(=O)N[C@@H](CC(N)=O)C(=O)N[C@@H](C)C(=O)N[C@@H](Cc1c[nH]cn1)C(=O)N[C@@H](CC(C)C)C(=O)N[C@@H](CCSC)C(=O)N[C@@H](C)C(=O)N[C@@H](CCC(N)=O)C(=O)N[C@@H](CSC1CC(=O)N(CC)C1=O)C(N)=O (stereo partly drawn) [SEQ ID NO: 42, TKFTLSLDVPTNIMNLLFNIAKAKNLRAQAAANAHLMAQC(-NES)-NH2] (H-TKFTLSLDVPTNIMNLLFNIAKAKNLRAQAAANAHLMAQC(Succinimide(1-Et,3-yl))-NH2; N-terminus assumed)	~17.8	~1.72	–	–	–	–
TKFTLSLDVPTNIMNLLFNIAKAKNLRAQAAANAHLMAQI-OH [SEQ ID NO: 113, TKFTLSLDVPTNIMNLLFNIAKAKNLRAQAAANAHLMAQI]	–	–	approximately 200 fold	1.07	79.4	107.4
TKFTLSLDVPTNIMNLLFNICKAKNLRAQAAANAHLMAQI-NH2 [SEQ ID NO: 22, TKFTLSLDVPTNIMNLLFNICKAKNLRAQAAANAHLMAQI-NH2]	0.676	0.52	–	–	–	–
CC[C@H](C)[C@H](NC(=O)[C@H](CCC(N)=O)NC(=O)[C@H](C)NC(=O)[C@H](CCSC)NC(=O)[C@H](CC(C)C)NC(=O)[C@H](Cc1c[nH]cn1)NC(=O)[C@H](C)NC(=O)[C@H](CSC1CC(=O)N(CC)C1=O)NC(=O)[C@H](C)NC(=O)[C@H](C)NC(=O)[C@H](C)NC(=O)[C@H](CCC(N)=O)NC(=O)[C@H](C)NC(=O)[C@H](CCCNC(=N)N)NC(=O)[C@H](CC(C)C)NC(=O)[C@H](CC(N)=O)NC(=O)[C@H](CCCCN)NC(=O)[C@H](C)NC(=O)[C@H](CCCCN)NC(=O)[C@H](C)NC(=O)[C@@H](NC(=O)[C@H](CC(N)=O)NC(=O)[C@H](Cc1ccccc1)NC(=O)[C@H](CC(C)C)NC(=O)[C@H](CC(C)C)NC(=O)[C@H](CC(N)=O)NC(=O)[C@H](CCSC)NC(=O)[C@@H](NC(=O)[C@H](CC(N)=O)NC(=O)[C@@H](NC(=O)[C@@H]1CCCN1C(=O)[C@@H](NC(=O)[C@H](CC(=O)O)NC(=O)[C@H](CC(C)C)NC(=O)[C@H](CO)NC(=O)[C@H](CC(C)C)NC(=O)[C@@H](NC(=O)[C@H](Cc1ccccc1)NC(=O)[C@H](CCCCN)NC(=O)[C@@H](N)[C@@H](C)O)[C@@H](C)O)C(C)C)[C@@H](C)O)[C@@H](C)CC)[C@@H](C)CC)C(N)=O (stereo partly drawn) [SEQ ID NO: 44, TKFTLSLDVPTNIMNLLFNIAKAKNLRAQAAAC(-NES)AH LMAQI-NH2] (H-TKFTLSLDVPTNIMNLLFNIAKAKNLRAQAAAC(Succinimide(1-Et,3-yl))AHLMAQI-NH2)	~31.6	~1.97	–	–	–	–
TKFTLSLDVPTNIMNLLFNIAKCKNLRAQAAANAHLMAQI-NH2 [SEQ ID NO: 24, TKFTLSLDVPTNIMNLLFNIAKCKNLRAQAAANAHLMAQI-NH2]	1.15	0.74	–	–	–	–
CKFTLSLDVPTNIMNLLFNIAKAKNLRAQAAANAHLMAQI-NH2 [SEQ ID NO: 2, CKFTLSLDVPTNIMNLLFNIAKAKNLRAQAAANAHLMAQI-NH2]	1.07	0.72	–	–	–	–
TKFTLSLDVCTNIMNLLFNIAKAKNLRAQAAANAHLMAQI-NH2 [SEQ ID NO: 11, TKFTLSLDVCTNIMNLLFNIAKAKNLRAQAAANAHLMAQI-NH2]	1.74	0.82	–	–	–	–
TKFCLSLDVPTNIMNLLFNIAKAKNLRAQAAANAHLMAQI-NH2 [SEQ ID NO: 5, TKFCLSLDVPTNIMNLLFNIAKAKNLRAQAAANAHLMAQI-NH2]	1.17	0.76	–	–	–	–
CC[C@H](C)[C@H](NC(=O)[C@H](CCC(N)=O)NC(=O)[C@H](C)NC(=O)[C@H](CCSC)NC(=O)[C@H](CC(C)C)NC(=O)[C@H](Cc1c[nH]cn1)NC(=O)[C@H](C)NC(=O)[C@H](CC(N)=O)NC(=O)[C@H](CSC1CC(=O)N(CC)C1=O)NC(=O)[C@H](C)NC(=O)[C@H](C)NC(=O)[C@H](CCC(N)=O)NC(=O)[C@H](C)NC(=O)[C@H](CCCNC(=N)N)NC(=O)[C@H](CC(C)C)NC(=O)[C@H](CC(N)=O)NC(=O)[C@H](CCCCN)NC(=O)[C@H](C)NC(=O)[C@H](CCCCN)NC(=O)[C@H](C)NC(=O)[C@@H](NC(=O)[C@H](CC(N)=O)NC(=O)[C@H](Cc1ccccc1)NC(=O)[C@H](CC(C)C)NC(=O)[C@H](CC(C)C)NC(=O)[C@H](CC(N)=O)NC(=O)[C@H](CCSC)NC(=O)[C@@H](NC(=O)[C@H](CC(N)=O)NC(=O)[C@@H](NC(=O)[C@@H]1CCCN1C(=O)[C@@H](NC(=O)[C@H](CC(=O)O)NC(=O)[C@H](CC(C)C)NC(=O)[C@H](CO)NC(=O)[C@H](CC(C)C)NC(=O)[C@@H](NC(=O)[C@H](Cc1ccccc1)NC(=O)[C@H](CCCCN)NC(=O)[C@@H](N)[C@@H](C)O)[C@@H](C)O)C(C)C)[C@@H](C)O)[C@@H](C)CC)[C@@H](C)CC)C(N)=O (stereo partly drawn) [SEQ ID NO: 45, TKFTLSLDVPTNIMNLLFNIAKAKNLRAQAAC(-NES)NAH LMAQI-NH2] (H-TKFTLSLDVPTNIMNLLFNIAKAKNLRAQAAC(Succinimide(1-Et,3-yl))NAHLMAQI-NH2; N-terminus assumed)	0.331	−0.01	–	–	–	–
TKFTLSLDVPTNIMNLLFNIAKAKCLRAQAAANAHLMAQI-NH2 [SEQ ID NO: 26, TKFTLSLDVPTNIMNLLFNIAKAKCLRAQAAANAHLMAQI-NH2]	0.363	0.08	–	–	–	–
TKFTLSLDVPTNIMNLLFNIAKAKNLRAQAAANAHLMAQC-NH2 [SEQ ID NO: 41, TKFTLSLDVPTNIMNLLFNIAKAKNLRAQAAANAHLMAQC-NH2]	35.5	2.07	–	–	–	–
